Laboratory results published in US20260191887A1, “METHODS OF TREATING INFLAMMATION” (THERAPEUTIKOS, INC., priority 2022, published 2026).

Key:
IL-6 = IL-6 ELISA in LPS-activated primary mouse peritoneal macrophages; type: cell-based; details: LPS 100 ng/mL; NDX1 and NDX2 0.01, 0.1, 1 mM; NAG 0.1 and 1 mM; n=8
Method: (§1) • 1. Non treatment (NT) • 2. LPS 100 ng/mL • 3. LPS 100 ng/mL+NDX1 dose1* • 4. LPS 100 ng/mL+NDX1 dose2* • 5. LPS 100 ng/mL+NDX1 dose3* • 6. LPS 100 ng/mL+NDX2 dose1 • 7. LPS 100 ng/mL+NDX2 dose2 • 8. LPS 100 ng/mL+NDX2 dose3 • 9. LPS 100 ng/mL+NAG dose2 • 10. LPS 100 ng/mL+NAG dose3 (*dose 1, 2, 3 were selected as low, middle and high dose with no cytotoxicity from the cytotoxic assay)
(§2) The peritoneal macrophages were isolated from peritoneal cavity, and cultured in Dulbecco's modified Eagle's medium (DMEM, Gibco BRL, Gaithersburg, MD) supplemented with 10% fetal bovine serum (FBS) (Hyclone Laboratories, Logan, VT) and 100 IU/mL penicillin G and 100 µg/mL streptomycin, in a humidified atmosphere of 5% carbon dioxide at 37° C. Cells will grow on a 96-well plate and co-treated with 100 ng/ml LPS (Sigma-Aldrich) 0.5 hours after addition of BNAGs and NAG. Twenty-four hours later, the cell number was counted by using the WST-1 kit (Fisher Scientific). After removal of the supernatant, […] new medium was added into each cell. […] Each sample was determined at 450 nm on a microplate reader.
(§3) The amounts of IL-6 and TNFα were measured by a commercial ELISA kit (Sigma-Aldrich), following the instructions provided by the manufacturer. […] The resultant solutions were read at 450 nm on a microplate reader.

[1] = test system: mouse macrophage cell line RAW264.7 cells; assay: WST-1 cytotoxicity assay in RAW264.7 cells; type: cell-based; details: concentrations up to 5 mM, 24 h, n=8
Method: Mouse RAW264.7 macrophage cell line (ATCC; Manassas, VA, USA) was maintained in DMEM culture medium containing 10% FBS and 1% antibiotic mix. For cell treatment, the test drugs at different doses were added to the culture 0.5 h prior to addition of 100 ng/mL LPS (Sigma-Aldrich Co., St Louis, MO, USA) and then cells were co-treated with LPS for 24 hours. Macrophages in the control group and the treatment groups was seeded on a 96-well plate for 24 hrs and the cell number was counted using the WST-1 kit (Fisher Scientific). After removal of the supernatant, 150 μL of the fresh medium was added into each well. Then 15 μL of the Cell Proliferation Reagent WST-1 was added and incubated with cells for 3 hrs in dark with a humidified atmosphere of 5% carbon dioxide at 37° C. Each sample was determined at 450 nm on a microplate reader. No drugs were added in the non-treatment group (NT). There were eight repeats in each group (n=8). The experiment was duplicated.

TNFα = TNFα ELISA in LPS-activated primary mouse peritoneal macrophages; type: cell-based; details: LPS 100 ng/mL; NDX1 and NDX2 0.01, 0.1, 1 mM; NAG 0.1 and 1 mM; n=8
Method: as §1, §2, §3

[2] = test system: primary human chondrocytes; assay: WST-1 cell proliferation assay in primary human chondrocytes with IL-1β; type: cell-based; details: IL-1β 5 ng/mL, concentrations up to 5 mM, n=6
From the text: Normal cartilage tissues. Articular cartilages were harvested from the femoral condyles and the tibial plateaus, which were obtained from autopsy services at the hospital of UVA and approved by the Institutional Review Board. All tissue samples were graded according to a modified Mankin scale, and only cartilages without evidence of osteoarthritis were used as a source of chondrocytes. The interval between death and the time the cartilages were harvested from these knee joints in the laboratory were at least 24 h and ranged up to 96 h. Cartilage shavings were harvested at the operation room and placed in tissue culture medium (DMEM, 10% FBS, penicillin, streptomycin), and shipped to the laboratory at 4° C. The tissues were processed in the laboratory within 24 h after harvest.
Chondrocytes were isolated from the cartilage by collagenase digestion and maintained in continuous monolayer cultures in DMEM containing 10% FBS. Cell viability after chondrocyte isolation by collagenase digestion of normal cartilage was >95%, determined by the typan blue stain (Sigma-Aldrich). Experiments were performed with primary or first passage cells. When necessary, trypsin will be used for cell passage.
Human chondrocytes were seeded in a 96-well plate (5×10^4/well) and incubated with culture medium overnight. […]

[3] = test system: leukocytes migration to the peritoneal cavity; assay: Leukocyte migration to the peritoneal cavity in LPS-induced systemic inflammation in mice; type: in vivo, mouse; details: LPS 10 mg/kg I.P., compound 200 or 300 mg/kg I.V., vs LPS alone
Method: Male C57BL6/J mice (8 to 10-week-old, 20-25 g) purchased from Charles River were used in this study. Mice were kept in the animal facility of the School of Medicine, University of Virginia (UVa). All experimental procedures were approved by the Ethics Committee on Animal Research of Medical School, UVa and are in accordance with the Guidelines of the National Council for Animal Experimentation Control (CONCEA).
Moderate endotoxemia by LPS was induced with a single dose (10 mg/Kg, i.p.) of LPS (Escherichia coli 0111:B4, Sigma Chemical Co., St. Louis, MO, United States), 30 min after intravenous injection of NAG or NDX1 or NDX2 or the vehicle (saline). Two doses (200 mg/kg body weight and 300 mg/kg body weight) were tested for NAG, NDX1 and NDX2. Animals without any treatment were used to obtain the baseline data. Six hours after LPS treatment, inflammation assays were performed as described below. A total of 40 animals were randomly divided into 5 groups (8 mice/group): non-treatment (NT); 10 mg/Kg LPS plus saline (LPS); 10 mg/Kg LPS plus NAG (LPS+NAG); 10 mg/Kg LPS plus NDX1 (LPS+NDX1); and 10 mg/Kg LPS plus NDX2 (LPS+NDX2). The experiment was duplicated.
Peritoneal cells were collected by lavage with ice-cold Dulbecco's modified Eagle's medium (DMEM, Gibco BRL, Gaithersburg, MD). […]

Structure (SMILES): CC(=O)N[C@H]1C(O)O[C@H](CO)[C@@H](O)[C@@H]1O (some centres unmarked) [NAG, N-acetyl glucosamine]
- reduction of IL-6 production (ELISA) (IL-6): could significantly reduce IL-6 and TNFa production
- toxicity / cell growth (WST-1) [1]: less toxicity than NDX1
- reduction of TNFa production (ELISA) (TNFα): could significantly reduce IL-6 and TNFa production
- effect on cell growth / toxicity (WST-1) [2]: could prevent inhibition of cell proliferation induced by IL-1β
- decrease of leukocytes migration to the peritoneal cavity (WST-1 test or DAPI staining) [3]: neither NAG nor NDX2 did
